# Results published in ChEMBL document CHEMBL1139012, “Synthesis and biological evaluation of purealin and analogues as cytoplasmic dynein heavy chain inhibitors” (J Med Chem, 2006).
# How the values were obtained:
# HT-29 = assay: Antiproliferative activity against human HT29 colon carcinoma cells by MTS assay; format: functional
# L1210 = assay: Antiproliferative activity against mouse L1210 leukemia cell line by MTS assay; format: functional
# 2008 = assay: Antiproliferative activity against human 2008 ovarian carcinoma cells by MTS assay; format: functional
# MDA-MB-231 = assay: Antiproliferative activity against human MDA-MB-231 breast carcinoma cells by MTS assay; format: functional
# PC-3 = assay: Antiproliferative activity against human PC3 prostate carcinoma cells by MTS assay; format: functional
# [1] = target: Cytoplasmic dynein 1 heavy chain 1 (Rattus norvegicus, UniProt P38650); assay: Inhibition of MT-stimulated ATPase activity of rat cytoplasmic dynein heavy chain motor domain
# Sequence of Cytoplasmic dynein 1 heavy chain 1 (P38650 whole entry, the tested form may be a part): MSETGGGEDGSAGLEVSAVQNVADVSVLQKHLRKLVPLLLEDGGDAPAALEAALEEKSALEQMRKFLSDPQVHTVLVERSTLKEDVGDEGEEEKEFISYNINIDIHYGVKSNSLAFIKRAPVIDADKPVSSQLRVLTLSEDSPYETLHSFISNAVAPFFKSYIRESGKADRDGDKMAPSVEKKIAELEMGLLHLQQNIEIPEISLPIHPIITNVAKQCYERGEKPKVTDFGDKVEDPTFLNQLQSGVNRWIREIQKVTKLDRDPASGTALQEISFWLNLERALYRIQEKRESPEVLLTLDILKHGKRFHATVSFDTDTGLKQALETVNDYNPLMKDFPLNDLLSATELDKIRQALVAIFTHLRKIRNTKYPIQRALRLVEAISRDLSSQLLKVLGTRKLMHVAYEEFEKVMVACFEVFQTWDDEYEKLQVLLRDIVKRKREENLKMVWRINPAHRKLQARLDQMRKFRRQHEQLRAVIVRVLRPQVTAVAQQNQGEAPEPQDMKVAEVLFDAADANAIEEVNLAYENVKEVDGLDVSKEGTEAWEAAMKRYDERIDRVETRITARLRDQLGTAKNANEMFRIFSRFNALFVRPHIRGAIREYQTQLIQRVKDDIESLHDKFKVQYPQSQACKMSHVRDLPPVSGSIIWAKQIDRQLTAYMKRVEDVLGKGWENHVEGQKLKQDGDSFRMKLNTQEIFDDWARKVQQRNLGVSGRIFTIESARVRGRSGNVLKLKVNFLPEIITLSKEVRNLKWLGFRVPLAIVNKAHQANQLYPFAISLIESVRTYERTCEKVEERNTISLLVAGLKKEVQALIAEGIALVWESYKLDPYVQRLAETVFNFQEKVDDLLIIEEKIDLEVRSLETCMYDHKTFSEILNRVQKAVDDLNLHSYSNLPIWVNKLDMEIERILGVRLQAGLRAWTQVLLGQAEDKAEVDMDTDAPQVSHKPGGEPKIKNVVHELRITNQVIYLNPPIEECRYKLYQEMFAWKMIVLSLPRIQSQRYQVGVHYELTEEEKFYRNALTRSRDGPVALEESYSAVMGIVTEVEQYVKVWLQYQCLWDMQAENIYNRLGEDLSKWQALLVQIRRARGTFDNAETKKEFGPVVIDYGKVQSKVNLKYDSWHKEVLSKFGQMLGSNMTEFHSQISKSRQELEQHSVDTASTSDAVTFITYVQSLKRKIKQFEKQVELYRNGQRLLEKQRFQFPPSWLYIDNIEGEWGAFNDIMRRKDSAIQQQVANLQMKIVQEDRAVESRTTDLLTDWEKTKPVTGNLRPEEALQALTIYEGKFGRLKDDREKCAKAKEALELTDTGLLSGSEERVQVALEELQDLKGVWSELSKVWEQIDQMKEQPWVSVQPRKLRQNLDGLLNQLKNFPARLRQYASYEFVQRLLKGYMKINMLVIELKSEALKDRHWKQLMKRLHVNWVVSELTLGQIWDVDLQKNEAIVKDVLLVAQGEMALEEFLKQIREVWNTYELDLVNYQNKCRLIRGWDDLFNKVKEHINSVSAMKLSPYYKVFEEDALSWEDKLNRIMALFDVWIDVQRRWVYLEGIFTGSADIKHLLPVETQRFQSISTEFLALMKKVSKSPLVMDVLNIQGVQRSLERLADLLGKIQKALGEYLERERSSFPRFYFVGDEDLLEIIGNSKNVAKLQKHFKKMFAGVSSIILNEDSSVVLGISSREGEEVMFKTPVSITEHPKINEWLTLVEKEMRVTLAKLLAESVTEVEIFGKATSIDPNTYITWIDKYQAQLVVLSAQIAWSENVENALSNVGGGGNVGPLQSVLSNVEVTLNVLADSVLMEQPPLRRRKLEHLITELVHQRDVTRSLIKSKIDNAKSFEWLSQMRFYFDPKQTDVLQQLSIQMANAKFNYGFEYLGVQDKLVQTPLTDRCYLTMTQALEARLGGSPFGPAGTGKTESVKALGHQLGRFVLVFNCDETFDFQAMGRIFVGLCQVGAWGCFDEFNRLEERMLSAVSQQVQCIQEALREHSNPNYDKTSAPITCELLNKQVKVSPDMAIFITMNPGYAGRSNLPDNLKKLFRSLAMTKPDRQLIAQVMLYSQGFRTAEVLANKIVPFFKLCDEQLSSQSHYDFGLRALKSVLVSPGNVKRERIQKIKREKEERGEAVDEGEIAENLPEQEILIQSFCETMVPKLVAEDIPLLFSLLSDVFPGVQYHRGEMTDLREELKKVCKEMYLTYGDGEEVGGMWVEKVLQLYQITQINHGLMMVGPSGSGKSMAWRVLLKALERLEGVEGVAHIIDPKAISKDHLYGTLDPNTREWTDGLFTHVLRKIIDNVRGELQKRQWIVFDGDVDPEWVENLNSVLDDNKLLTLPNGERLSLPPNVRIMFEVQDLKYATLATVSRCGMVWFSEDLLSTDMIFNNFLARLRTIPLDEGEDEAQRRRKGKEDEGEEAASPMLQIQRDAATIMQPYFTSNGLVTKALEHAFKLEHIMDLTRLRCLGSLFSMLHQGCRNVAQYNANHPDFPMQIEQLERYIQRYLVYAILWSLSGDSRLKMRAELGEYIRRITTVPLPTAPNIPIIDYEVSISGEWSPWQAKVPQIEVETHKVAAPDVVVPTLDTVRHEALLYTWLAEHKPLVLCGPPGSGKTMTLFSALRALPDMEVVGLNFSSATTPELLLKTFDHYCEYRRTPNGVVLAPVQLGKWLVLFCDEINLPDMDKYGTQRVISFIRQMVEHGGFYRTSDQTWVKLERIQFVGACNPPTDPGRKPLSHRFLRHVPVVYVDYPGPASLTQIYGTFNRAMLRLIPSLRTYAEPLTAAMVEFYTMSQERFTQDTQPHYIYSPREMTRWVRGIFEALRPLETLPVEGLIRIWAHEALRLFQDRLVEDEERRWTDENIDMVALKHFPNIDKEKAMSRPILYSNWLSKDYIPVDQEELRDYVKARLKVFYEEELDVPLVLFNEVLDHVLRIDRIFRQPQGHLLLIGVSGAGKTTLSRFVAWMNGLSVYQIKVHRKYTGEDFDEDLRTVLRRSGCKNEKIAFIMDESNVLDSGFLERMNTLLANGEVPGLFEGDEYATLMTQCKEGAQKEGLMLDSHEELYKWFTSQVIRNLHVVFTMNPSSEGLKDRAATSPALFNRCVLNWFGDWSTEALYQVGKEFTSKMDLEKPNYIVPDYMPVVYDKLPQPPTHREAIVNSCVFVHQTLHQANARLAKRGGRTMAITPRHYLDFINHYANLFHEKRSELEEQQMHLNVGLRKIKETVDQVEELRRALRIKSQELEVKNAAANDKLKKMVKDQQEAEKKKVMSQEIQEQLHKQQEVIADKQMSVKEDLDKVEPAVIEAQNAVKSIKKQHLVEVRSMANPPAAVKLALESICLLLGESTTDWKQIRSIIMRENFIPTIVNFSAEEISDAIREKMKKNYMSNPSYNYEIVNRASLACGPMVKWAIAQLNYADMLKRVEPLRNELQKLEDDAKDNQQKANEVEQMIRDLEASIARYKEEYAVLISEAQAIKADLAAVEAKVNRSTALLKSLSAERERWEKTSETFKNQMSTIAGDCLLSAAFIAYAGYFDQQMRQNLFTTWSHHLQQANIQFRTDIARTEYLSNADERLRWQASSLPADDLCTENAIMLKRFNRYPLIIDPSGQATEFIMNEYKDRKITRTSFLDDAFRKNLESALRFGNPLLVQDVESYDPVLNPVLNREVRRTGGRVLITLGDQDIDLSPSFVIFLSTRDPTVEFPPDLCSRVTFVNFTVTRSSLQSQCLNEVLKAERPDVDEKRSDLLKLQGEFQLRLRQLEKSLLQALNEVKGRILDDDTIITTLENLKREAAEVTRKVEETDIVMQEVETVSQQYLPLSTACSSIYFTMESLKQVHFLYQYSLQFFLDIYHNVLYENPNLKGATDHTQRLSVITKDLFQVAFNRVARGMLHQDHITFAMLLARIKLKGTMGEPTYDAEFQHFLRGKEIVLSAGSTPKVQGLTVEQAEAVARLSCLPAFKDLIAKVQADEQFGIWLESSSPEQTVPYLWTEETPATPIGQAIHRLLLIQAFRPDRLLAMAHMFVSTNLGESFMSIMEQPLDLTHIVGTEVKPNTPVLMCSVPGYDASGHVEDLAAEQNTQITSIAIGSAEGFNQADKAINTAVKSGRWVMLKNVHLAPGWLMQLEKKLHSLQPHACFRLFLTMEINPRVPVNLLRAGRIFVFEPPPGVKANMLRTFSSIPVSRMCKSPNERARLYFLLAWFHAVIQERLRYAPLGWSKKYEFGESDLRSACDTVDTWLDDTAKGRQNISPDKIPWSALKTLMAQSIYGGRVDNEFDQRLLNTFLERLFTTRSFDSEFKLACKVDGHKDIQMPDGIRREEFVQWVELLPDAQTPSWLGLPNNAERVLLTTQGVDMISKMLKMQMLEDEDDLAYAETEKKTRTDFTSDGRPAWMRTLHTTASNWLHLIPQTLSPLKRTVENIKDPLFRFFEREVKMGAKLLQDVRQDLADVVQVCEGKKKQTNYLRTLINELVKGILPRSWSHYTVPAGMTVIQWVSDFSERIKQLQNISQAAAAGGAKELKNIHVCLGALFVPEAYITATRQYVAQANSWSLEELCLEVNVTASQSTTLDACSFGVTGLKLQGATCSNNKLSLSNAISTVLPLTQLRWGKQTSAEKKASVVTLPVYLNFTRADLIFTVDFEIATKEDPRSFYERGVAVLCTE
SMILES,GI50 (HT-29) [µM],GI50 (L1210) [µM],GI50 (MDA-MB-231) [µM],GI50 (PC-3) [µM],IC50 [1] [µM],GI50 2008 [µM]
COc1ccc(CCNC(=O)/C(Cc2ccc(OCCCN)c(Br)c2)=N\O)cc1,30,9.9,48,39,,31
COc1ccc(CCNC(=O)/C(Cc2cc(Br)cc(Br)c2OCCCN)=N\O)cc1,4.9,6.2,8.8,35,,25
NCCCOc1ccc(C/C(=N/O)C(=O)NCCc2ccc(Cl)cc2)cc1Br,27,6.5,26,33,> 50,27
COc1ccc(CCNC(=O)/C(Cc2cc(Br)c(OCCCN)c(Br)c2)=N\O)cc1,20,2.8,17,21,,24
C=C/C=C\[C@H](C)[C@H](OC(N)=O)[C@@H](C)[C@H](O)[C@@H](C)C/C(C)=C\[C@H](C)[C@@H](O)[C@@H](C)/C=C\[C@@H](O)C[C@@H]1OC(=O)[C@H](C)[C@@H](O)[C@H]1C [DISERMOLIDE],0.028,0.0092,0.04,0.052,,0.0027
CCCCCCCCCCCCCC(=O)NCCCOc1c(Br)cc(C/C(=N/O)C(=O)NCCc2c[nH]c(N)n2)cc1Br [LIPOPUREALIN A],29,9,28,30,> 50,28
CC(C)CCCCCCCCCCCC(=O)NCCCOc1c(Br)cc(C/C(=N/O)C(=O)NCCc2c[nH]c(N)n2)cc1Br [LIPOPUREALIN B],30,12,28,25,,29
CCCCCCCCCCCCCCCC(=O)NCCCOc1c(Br)cc(C/C(=N/O)C(=O)NCCc2c[nH]c(N)n2)cc1Br [LIPOPUREALIN C],20,9.7,7,32,,5.7
NCCCOc1c(Br)cc(C/C(=N/O)C(=O)NCCc2c[nH]c(N)n2)cc1Br [PUREALIDIN A],> 50,4.7,> 50,> 50,42,> 50
COC1=C(Br)[C@@H](O)[C@]2(C=C1Br)CC(C(=O)NCCCOc1c(Br)cc(C/C(=N/O)C(=O)NCCc3c[nH]c(N)n3)cc1Br)=NO2 [PUREALIN],> 50,3.2,> 50,> 50,35,> 50

# Second part, led by results:
GI50 (HT-29) [µM],GI50 (L1210) [µM],GI50 (MDA-MB-231) [µM],GI50 (PC-3) [µM],IC50 [1] [µM],SMILES,GI50 2008 [µM]
6,5.8,5.3,5,> 50,NCCCOc1c(Cl)cc(Cl)cc1C/C(=N/O)C(=O)NCCc1c[nH]c2ccccc12,5.7
5.6,7.5,7.6,31,,NCCCOc1c(Cl)cc(Cl)cc1C/C(=N/O)C(=O)NCCc1ccccc1,8.8
5.3,6.3,5.6,15,> 50,NCCCOc1c(Br)cc(Br)cc1C/C(=N/O)C(=O)NCCc1ccc(Cl)cc1,5.6
6.2,6.9,24,32,,COc1ccc(CCNC(=O)/C(Cc2cc(Cl)cc(Cl)c2OCCCN)=N\O)cc1,29
27,6.2,> 50,31,,NCCCOc1ccc(C/C(=N/O)C(=O)NCCc2ccccc2)cc1Br,30
26,5.8,24,26,,NCCCOc1c(Br)cc(C/C(=N/O)C(=O)NCCc2c[nH]c3ccccc23)cc1Br,27
5.5,5.9,5.2,7.8,,NCCCOc1c(Cl)cc(Cl)cc1C/C(=N/O)C(=O)NCCc1ccc(Cl)cc1,5.4
6,5.4,6.7,31,> 50,NCCCOc1c(Br)cc(Br)cc1C/C(=N/O)C(=O)NCCc1c[nH]c2ccccc12,7.5
31,6.4,27,31,,NCCCOc1c(Br)cc(C/C(=N/O)C(=O)NCCc2ccccc2)cc1Br,29
5.3,6.3,5.7,19,,NCCCOc1c(Br)cc(Br)cc1C/C(=N/O)C(=O)NCCc1ccccc1,19
30,7.6,25,32,> 50,NCCCOc1ccc(C/C(=N/O)C(=O)NCCc2c[nH]c3ccccc23)cc1Br,26
31,7.8,27,30,,NCCCOc1c(Br)cc(C/C(=N/O)C(=O)NCCc2ccc(Cl)cc2)cc1Br,29
